Reference: patent publication US10441588B2, “Methods and compositions for treating bacterial infection” (Curators of the University of Missouri, priority 2012, dated 2019)
Structures can show the parent of a compound that is named as a salt. Where two headings read alike, the source gives them in different places.

Tests used:
S. aureus biofilm = S. aureus biofilm inhibition, optical density, test/control; assay type: cell-based, Staphylococcus aureus; conditions: Staphylococcus aureus, growth of biofilm test/control by optical density
S. aureus = S. aureus growth inhibition, optical density, test/control; assay type: cell-based, Staphylococcus aureus; conditions: Staphylococcus aureus, growth of bacteria test/control by optical density
[1] = 5 μM, read-out: S. aureus Biofilm Inhibition 5 μM vs. (−) Control
[2] = 50 μM, read-out: S. aureus Biofilm Inhibition 50 μM vs. (−) Control

| SMILES | activity at 50 µM (S. aureus biofilm; [2]) [%] | activity at 100 µM (S. aureus biofilm) [%] | activity at 100 µM (S. aureus) [%] | also measured |
| --- | --- | --- | --- | --- |
| C=CCOc1nc(SCCOC)nc2c1C1(CCN(C(=O)CCCC)CC1)Cc1cc(OC)ccc1-2 [CCG-208863, 1-(4-(allyloxy)-8-methoxy-2-((2-methoxyethyl)thio)-6H-spiro[benzo[h]quinazoline-5,4′-piperidin]-1′-yl)pentan-1-one] | 68.6 |  |  | activity at 5 µM (S. aureus biofilm; [1]): 72.1% |
| C=CCn1c(SCC(F)(F)F)nc2c(c1=O)C(C)(C)Cc1ccc(OC)cc1-2 [CCG-206352] |  | 47 | 101 | activity at 10 µM (S. aureus biofilm): 60.4% |
| COCCSc1nc2c(c(=O)n1CCCC#N)C(C)(C)Cc1ccccc1-2 [CCG-204031, 4-(2-((2-Methoxyethyl)thio)-5,5-dimethyl-4-oxo-5,6-dihydrobenzo[h]quinazolin-3(4H)-yl)butanenitrile] |  | 59.2 | 98.5 |  |
| C=CCn1c(SCCOC)nc2c(c1=O)CC(C)c1ccccc1-2 (stereo not shown) [CCG-203574] |  | 46.5 | 73.8 |  |
| C=CCn1c(SCCOC)nc2c(c1=O)C1(CCN(C(=O)OC(C)(C)C)C1)Cc1cc(OC)ccc1-2 (stereo not shown) [CCG-208864, tert-butyl 3-allyl-8-methoxy-2-((2-methoxyethyl)thio)-4-oxo-4,6-dihydro-3H-spiro[benzo[h]quinazoline-5,3′-pyrrolidine]-1′-carboxylate] | 49.1 |  |  | activity at 5 µM (S. aureus biofilm; [1]): 49.5% |
| C=CCn1c(SCCN(C)C)nc2c(c1=O)C1(CCCCC1)Cc1ccccc1-2 [CCG-102495] |  | 78.9 | 93 |  |
| C=CCn1c(OCC)nc2c(c1=O)C(C)(C)Cc1ccccc1-2 [CCG-203803] |  | 76.8 | 81.9 |  |
| C=CCn1c(SCCOC)nc2c(c1=O)C1(CCN(C(=O)NCC(=O)OCC)CC1)Cc1cc(OC)ccc1-2 [CCG-211972, ethyl (3-allyl-8-methoxy-2-((2-methoxyethyl)thio)-4-oxo-4,6-dihydro-3H-spiro[benzo[h]quinazoline-5,4′-piperidine]-1′-carbonyl)glycinate] | 68 |  |  | activity at 5 µM (S. aureus biofilm; [1]): 125% |
| C=CCn1c(SCC)nc2c(c1=O)C(C)(C)Cc1c(OC)cccc1-2 [CCG-203629] |  | 35.1 | 66.7 |  |
| C=CCn1c(SCCOC)nc2c(c1=O)C1(CCN(C(C)=O)CC1)Cc1ccccc1-2 [CCG-206230, 1′-Acetyl-3-allyl-2-((2-methoxyethyl)thio)-3H-spiro[benzo[h]quinazoline-5,4′-piperidin]-4(6H)-one] |  |  | 97 | activity at 10 µM (S. aureus biofilm): 85.5% |
| C=CCn1c(SCc2ccccn2)nc2c(c1=O)C(C)(C)Cc1ccccc1-2 [CCG-203039] |  | 71 | 95.9 |  |
| C=CCn1c(SCCOC)nc2c(c1=O)C(C)(C)Cc1cnccc1-2 [CCG-204041, 3-allyl-2-((2-methoxyethyl)thio)-5,5-dimethyl-5,6-dihydropyrido[3,4-h]quinazolin-4(3H)-one] |  | 75.7 | 90.2 |  |
| C=CCn1c(SCCOC)nc2c(c1=O)C1(CCN(C=O)CC1)Cc1ccccc1-2 [CCG-206234, 3-Allyl-2-((2-methoxyethyl)thio)-4-oxo-4,6-dihydro-3H-spiro[benzo[h]quinazoline-5,4′-piperidine]-1′-carbaldehyde] |  | 65 | 99 | activity at 10 µM (S. aureus biofilm): 101% |
| COCCSc1nc(OCC2OCCO2)c2c(n1)-c1ccccc1CC2(C)C [CCG-203627] |  | 49.6 | 80.6 |  |
| COCCSc1nc(OCCOc2ccc(F)cc2)c2c(n1)-c1ccccc1CC2(C)C [CCG-204028, 4-(2-(4-Fluorophenoxy)ethoxy)-2-((2-methoxyethyl)thio)-5,5-dimethyl-5,6-dihydrobenzo[h]-quinazoline] |  | 70 | 113 |  |
| CCSc1nc(OC)c2c(n1)-c1cc(OC)ccc1CC2(C)C [CCG-211793, 2-(ethylthio)-4,9-dimethoxy-5,5-dimethyl-5,6-dihydrobenzo[h]quinazoline] | 72.2 |  |  | activity at 5 µM (S. aureus biofilm; [1]): 122% |
| COc1ccc2c(c1)CC1(CCN(C(=O)OC(C)(C)C)CC1)c1c(OCC#N)nc(SCC#N)nc1-2 [CCG-211812, tert-butyl 4-(cyanomethoxy)-2-((cyanomethyl)thio)-8-methoxy-6H-spiro[benzo[h]quinazoline-5,4′-piperidine]-1′-carboxylate] | 75 |  |  | activity at 5 µM (S. aureus biofilm; [1]): 75.2% |
| COCCSc1nc(OCC(=O)c2ccc(F)c(F)c2)c2c(n1)-c1ccccc1CC2(C)C [CCG-204040, 1-(3,4-Difluorophenyl)-2-((2-((2-methoxyethyl)thio)-5,5-dimethyl-5,6-dihydrobenzo[h]-quinazolin-4-yl)oxy)ethanone] |  | 65.9 | 119 |  |
| C=CCn1c([S+]([O-])CC)nc2c(c1=O)C(C)(C)Cc1ccc(OC)cc1-2 (stereo not shown) [CCG-206355] |  | 74.7 | 96 |  |

| SMILES | activity at 50 µM (S. aureus biofilm; [2]) [%] | activity at 100 µM (S. aureus biofilm) [%] | activity at 100 µM (S. aureus) [%] | also measured |
| --- | --- | --- | --- | --- |
| C=CCOc1nc(SCC)nc2c1C(C)(C)Cc1ccc(OC)cc1-2 [CCG-206358] |  | 70 |  | activity at 10 µM (S. aureus biofilm): 55.7% |
| CCSc1nc2c(c(=O)n1CCOC)C(C)(C)Cc1ccccc1-2 [CCG-203802, 2-(ethylthio)-3-(2-methoxyethyl)-5,5-dimethyl-5,6-dihydrobenzo[h]quinazolin-4(3H)-one] |  | 55.7 | 67.7 |  |
| C=CCn1c(SCCOC)nc2c(c1=O)C1(CCNC1)Cc1cc(OC)ccc1-2 (stereo not shown) [CCG-208865, 3-allyl-8-methoxy-2-((2-methoxyethyl)thio)-3H-spiro[benzo[h]quinazoline-5,3′-pyrrolidine]-4(6H)-one hydrochloride] |  |  |  | activity at 5 µM (S. aureus biofilm; read-out: S. aureus Biofilm Inhibition 5 μM vs. (−) Control, 5 μM): 80.3%; activity at 50 µM (S. aureus biofilm; read-out: S. aureus Biofilm Inhibition 50 μM vs. (−) Control, 50 μM): 65.2% |
| C=CCn1c(SCCOC)nc2c(c1=O)C1(CCN(C)CC1)Cc1cc(OC)ccc1-2 [CCG-208981, 3-allyl-8-methoxy-2-((2-methoxyethyl)thio)-1′-methyl-3H-spiro[benzo[h]quinazoline-5,4′-piperidin]-4(6H)-one] | 70.6 |  |  | activity at 5 µM (S. aureus biofilm; [1]): 88.5% |
| C=CCOc1nc(SCCOC)nc(-c2ccccc2)c1C [CCG-205382, 4-(Allyloxy)-2-((2-methoxyethyl)thio)-5-methyl-6-phenylpyrimidine] |  | 55.2 | 93.4 |  |
| COc1ccc2c(c1)CC1(CCN(C(=O)OC(C)(C)C)CC1)c1c(OC)nc(SCC#N)nc1-2 [CCG-211810, tert-butyl 2-((cyanomethyl)thio)-4,8-dimethoxy-6H-spiro[benzo[h]quinazoline-5,4′-piperidine]-1′-carboxylate] | 75 |  |  | activity at 5 µM (S. aureus biofilm; [1]): 68.2% |
| C=CCn1c(SCC)nc2c(c1=O)C(C)(C)Cc1cc(OCC(=O)O)ccc1-2 [CCG-205434] |  | 32.5 |  |  |
| C=CCOc1nc(SCC#N)nc2c1C(C)(C)Cc1ccc(OC)cc1-2 [CCG-212010, 2-((4-(allyloxy)-9-methoxy-5,5-dimethyl-5,6-dihydrobenzo[h]quinazolin-2-yl)thio)acetonitrile] | 35 |  |  | activity at 5 µM (S. aureus biofilm; [1]): 55% |
| C=CCn1c(SCC)nc2c(c1=O)C(C)(C)Cc1c(OCCOC)cccc1-2 [CCG-203633] |  | 54 | 76.2 |  |
| COCCOc1nc(SCCOC)nc(-c2ccccc2)c1C [CCG-205361, 4-(2-Methoxyethoxy)-2-((2-methoxyethyl)thio)-5-methyl-6-phenylpyrimidine] |  | 67.7 | 89 |  |
| C=CCn1c(SCCOC)nc2c(c1=O)C1(CCOCC1)Cc1ccccc1-2 [CCG-205453, 3-Allyl-2-((2-methoxyethyl)thio)-2′,3′,5′,6′-tetrahydro-3H-spiro[benzo[h]quinazoline-5,4′-pyran]-4(6H)-one] |  | 79.6 | 102 |  |
| COCCSc1nc2c(c(=O)n1CCOc1ccc(OC)cc1)C(C)(C)Cc1ccccc1-2 [CCG-204060] |  | 79 | 91.2 |  |
| COCCSc1nc(OCC2CC2)c2c(n1)-c1ccccc1CC2(C)C [CCG-205445, 4-(Cyclopropylmethoxy)-2-((2-methoxyethyl)thio)-5,5-dimethyl-5,6-dihydrobenzo[h]quin-azoline] |  | 71.1 | 107 |  |
| COc1ccc2c(c1)-c1nc(SCC#N)n(CC#N)c(=O)c1C(C)(C)C2 [CCG-212012, 2-((3-(cyanomethyl)-9-methoxy-5,5-dimethyl-4-oxo-3,4,5,6-tetrahydrobenzo[h]quinazolin-2-yl)thio)acetonitrile] | 27 |  |  | activity at 5 µM (S. aureus biofilm; [1]): 55% |
| C=CCn1c(SCCOC)nc2c(c1=O)C1(CCN(C(=O)OCC)CC1)Cc1ccccc1-2 [CCG-206233, Ethyl 3-allyl-2-((2-methoxyethyl)thio)-4-oxo-4,6-dihydro-3H-spiro[benzo[h]quinazoline-5,4′-piperidine]-1′-carboxylate] | 59.4 |  |  |  |
| C=CCn1c(SCC)nc2c(c1=O)C(C)(C)Cc1ccc(OC)cc1-2 [CCG-203625] |  |  |  | activity at 10 µM (S. aureus biofilm): 51.3% |
| COc1ccc2c(c1)CC1(CCN(C(=O)OC(C)(C)C)CC1)c1c-2nc(SCC#N)n(C)c1=O [CCG-211811, tert-butyl 2-((cyanomethyl)thio)-8-methoxy-3-methyl-4-oxo-4,6-dihydro-3H-spiro[benzo[h]quinazoline-5,4′-piperidine]-1′-carboxylate] | 70.2 |  |  | activity at 5 µM (S. aureus biofilm; [1]): 67.8% |
| COc1ccc2c(c1)-c1nc(SCC#N)nc(OCC#N)c1C(C)(C)C2 [CCG-212011, 2-((4-(cyanomethoxy)-9-methoxy-5,5-dimethyl-5,6-dihydrobenzo[h]quinazolin-2-yl)thio)acetonitrile] | 29 |  |  | activity at 5 µM (S. aureus biofilm; [1]): 48% |
